Measured values: patent publication US20220315587A1, “COMPOUNDS FOR TREATMENT OF CANCER” (SINOPSEE THERAPEUTICS, priority 2019, published 2022)

How the values were obtained:
[1] = system: PDGFRβ signaling (PDGFRβ autophosphorylation, Shp2 phosphorylation) in HEK293 cells expressing human PDGFR; assay: Western blot of PDGFRβ signaling in HEK293 cell line model; type: cell-based; conditions: 20 ng/ml PDGF, FIG. 1
Procedure: FIG. 1 represents Western-blot analysis result of the compounds of Examples 1 and 2 in relation to inhibition of PDGFRβ and p-SHP2 signalling in HEK293 cells expressing PDGFRβ.
Human Embryonic kidney cells (HEK293) were constructed to express human PDGFRWT under the control of constitutive CMV promoter. Cells were grown in the presence of 20 ng/ml PDGF (the ligand for the PDGFRβ) to activate the PDGFRβ. Different concentrations of the compounds of Examples 1 and 2 were added to study their effect on the PDGFRβ-mediated signaling. Autophosphorylation of PDGFRβ and Shp2 phosphorylation were monitored by Western blotting and were used as the markers for PDGFRβ signaling. β-Actin was used as an internal control.

[2] = system: BA/F3 cells expressing PDGFR; assay: Cell viability by MTS assay (MTS Assay 1); type: cell-based; conditions: for IC50: Mus musculus, BaF3, read-out: MTS Assay 1: concentration of compound required to reduce cell viability to 50%; for Activity compared to the imatinib and quizartinib controls (cell viability): MTS assay, FIGS. 2 and 3
Procedure: FIG. 2 illustrates the effect of the compounds of Examples 1 to 4 on Ba/F3 cells expressing PDGFR. Results for imatinib and quizartinib are provided as positive controls.
(§1) The effect of the compounds on cell viability were determined using MTS assay. MTS Cell Proliferation Assay Kit is a colorimetric method for sensitive quantification of viable cells in proliferation and cytotoxicity assay. The method is based on the reduction of MTS tetrazolium compound by viable cells to generate a colored formazan product that is soluble in cell culture media. BA/F3 cells expressing the receptor tyrosine kinase (either PDGFR [MTS Assay 1] or Flt3 [MTS Assay 2]) were cultured in standard culture conditions in a 96-well microtiter plate (final volume of 200 μl/well) in the absence or presence of the compound to be tested and were incubated for 20-48 hrs. MTS Reagent (20 μl/well) was added into each well & incubated for 0.5-4 hours at 37° C. in standard culture conditions. Absorbance at 490 nm was recorded using a plate reader.
(§2) Results are shown in FIGS. 2 and 3, and Table 2 (where IC50 indicates the concentration of compound required to reduce cell viability to 50%).
(§3) For the MTS Assay, the result indicates the concentration of compound required to reduce cell viability to 50%.

Flt3 = target: T1, Flt3 (Homo sapiens, UniProt P36888); assay: In vitro kinase assay ([γ-33P]-ATP); type: biochemical; conditions: ATP at apparent ATP-Km of the kinase
T1 sequence (P36888 27-993): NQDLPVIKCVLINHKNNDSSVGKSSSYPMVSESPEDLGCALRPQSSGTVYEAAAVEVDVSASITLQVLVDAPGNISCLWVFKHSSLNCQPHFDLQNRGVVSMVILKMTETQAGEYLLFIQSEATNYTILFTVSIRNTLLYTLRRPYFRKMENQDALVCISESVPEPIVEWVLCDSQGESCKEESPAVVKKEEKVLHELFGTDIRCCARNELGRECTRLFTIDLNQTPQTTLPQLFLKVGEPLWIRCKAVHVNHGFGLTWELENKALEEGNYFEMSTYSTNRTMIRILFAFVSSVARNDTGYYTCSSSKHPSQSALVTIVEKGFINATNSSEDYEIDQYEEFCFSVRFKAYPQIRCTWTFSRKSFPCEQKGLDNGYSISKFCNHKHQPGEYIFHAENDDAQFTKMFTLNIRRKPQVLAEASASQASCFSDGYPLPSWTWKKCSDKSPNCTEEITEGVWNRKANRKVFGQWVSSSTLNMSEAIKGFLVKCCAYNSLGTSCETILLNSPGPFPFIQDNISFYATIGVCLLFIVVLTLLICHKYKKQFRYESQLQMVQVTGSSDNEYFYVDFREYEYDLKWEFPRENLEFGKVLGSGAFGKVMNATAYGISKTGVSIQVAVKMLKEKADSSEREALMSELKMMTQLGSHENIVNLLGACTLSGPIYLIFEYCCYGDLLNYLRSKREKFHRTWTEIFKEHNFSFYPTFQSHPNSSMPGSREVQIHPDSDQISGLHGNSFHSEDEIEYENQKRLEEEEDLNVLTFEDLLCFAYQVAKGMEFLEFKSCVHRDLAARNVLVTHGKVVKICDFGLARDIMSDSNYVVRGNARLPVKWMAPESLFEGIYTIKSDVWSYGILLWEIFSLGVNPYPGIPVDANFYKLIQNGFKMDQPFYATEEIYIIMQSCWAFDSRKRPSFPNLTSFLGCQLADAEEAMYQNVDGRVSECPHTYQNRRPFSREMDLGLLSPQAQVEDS
Procedure: (§4) To determine the inhibitory activity of compounds, in vitro kinase assays were performed on respective enzymes purified from Sf9 insect cells or E. coli as recombinant GST-fusion proteins or His-tagged proteins.

[3] = target: T2, BA/F3 cells expressing Flt3 (Homo sapiens, UniProt P36888, cells depend on it, form not given); assay: Cell viability by MTS assay (MTS Assay 2); type: cell-based; conditions: BA/F3 cells expressing Flt3, 20-48 hrs; symbol after the slash; read-out: MTS Assay 2: concentration of compound required to reduce cell viability to 50%
T2 sequence (P36888 1-993): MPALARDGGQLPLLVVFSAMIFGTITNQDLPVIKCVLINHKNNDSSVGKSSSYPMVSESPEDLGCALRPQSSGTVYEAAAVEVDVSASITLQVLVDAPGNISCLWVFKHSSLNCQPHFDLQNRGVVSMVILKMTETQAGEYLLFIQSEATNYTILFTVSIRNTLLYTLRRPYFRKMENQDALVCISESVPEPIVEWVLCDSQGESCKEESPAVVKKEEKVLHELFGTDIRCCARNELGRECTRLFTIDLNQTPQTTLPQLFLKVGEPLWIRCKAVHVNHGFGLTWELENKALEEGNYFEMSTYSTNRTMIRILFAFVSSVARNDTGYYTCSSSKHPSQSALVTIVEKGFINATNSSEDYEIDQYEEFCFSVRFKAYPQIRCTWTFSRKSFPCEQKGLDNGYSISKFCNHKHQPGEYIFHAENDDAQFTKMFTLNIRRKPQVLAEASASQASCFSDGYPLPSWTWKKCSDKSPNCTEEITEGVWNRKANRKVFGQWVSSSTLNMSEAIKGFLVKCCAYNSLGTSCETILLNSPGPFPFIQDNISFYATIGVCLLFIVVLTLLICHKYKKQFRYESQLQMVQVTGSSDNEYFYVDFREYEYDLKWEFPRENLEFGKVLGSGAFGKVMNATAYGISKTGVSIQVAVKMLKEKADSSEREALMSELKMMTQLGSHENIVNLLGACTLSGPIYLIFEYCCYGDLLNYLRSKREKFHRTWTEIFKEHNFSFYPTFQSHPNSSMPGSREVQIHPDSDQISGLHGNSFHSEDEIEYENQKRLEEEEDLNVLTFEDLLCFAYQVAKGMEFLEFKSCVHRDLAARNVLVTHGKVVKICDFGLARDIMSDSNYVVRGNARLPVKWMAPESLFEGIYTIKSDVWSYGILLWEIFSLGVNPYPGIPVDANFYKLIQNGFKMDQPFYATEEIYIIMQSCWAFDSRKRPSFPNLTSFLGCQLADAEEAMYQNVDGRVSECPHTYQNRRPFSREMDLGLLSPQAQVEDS
Procedure: FIG. 3 illustrates the effect of the compounds of Examples 5 to 7 on Ba/F3 cells expressing Flt3 kinase. Results for imatinib (negative control) and quizartinib (positive control) are also provided.
as §1, §2, §3

CDK19 = CDK19 (Homo sapiens, UniProt Q9BWU1); assay: In vitro kinase assay ([γ-33P]-ATP); type: biochemical; conditions: ATP at apparent ATP-Km of the kinase
CDK19, sequence (Q9BWU1 whole entry): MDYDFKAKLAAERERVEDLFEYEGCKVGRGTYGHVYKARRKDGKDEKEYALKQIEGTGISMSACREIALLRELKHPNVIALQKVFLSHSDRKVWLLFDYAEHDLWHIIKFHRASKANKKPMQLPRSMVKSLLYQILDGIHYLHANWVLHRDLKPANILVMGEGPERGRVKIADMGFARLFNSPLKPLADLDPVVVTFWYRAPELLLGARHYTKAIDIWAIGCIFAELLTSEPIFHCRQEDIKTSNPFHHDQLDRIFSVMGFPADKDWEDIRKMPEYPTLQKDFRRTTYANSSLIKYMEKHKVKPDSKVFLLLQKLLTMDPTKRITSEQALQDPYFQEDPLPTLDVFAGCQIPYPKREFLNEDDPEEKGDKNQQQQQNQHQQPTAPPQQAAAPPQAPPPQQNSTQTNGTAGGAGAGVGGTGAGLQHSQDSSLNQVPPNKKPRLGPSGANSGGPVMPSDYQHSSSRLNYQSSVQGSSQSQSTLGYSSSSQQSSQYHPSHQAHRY
CDK19, sequence (P24863 whole entry partner): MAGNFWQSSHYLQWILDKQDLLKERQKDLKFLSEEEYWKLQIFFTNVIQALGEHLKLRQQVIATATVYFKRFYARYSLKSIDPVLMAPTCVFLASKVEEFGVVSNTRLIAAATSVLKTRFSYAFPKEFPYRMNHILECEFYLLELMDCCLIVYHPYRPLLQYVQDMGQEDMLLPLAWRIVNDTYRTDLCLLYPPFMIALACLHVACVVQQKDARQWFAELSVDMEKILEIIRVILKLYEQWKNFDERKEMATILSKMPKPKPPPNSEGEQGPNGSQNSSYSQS
Procedure: as §4

CDK8 = CDK8 (Homo sapiens, UniProt P49336); assay: In vitro kinase assay ([γ-33P]-ATP); type: biochemical; conditions: ATP at apparent ATP-Km of the kinase
CDK8, sequence (P49336 whole entry): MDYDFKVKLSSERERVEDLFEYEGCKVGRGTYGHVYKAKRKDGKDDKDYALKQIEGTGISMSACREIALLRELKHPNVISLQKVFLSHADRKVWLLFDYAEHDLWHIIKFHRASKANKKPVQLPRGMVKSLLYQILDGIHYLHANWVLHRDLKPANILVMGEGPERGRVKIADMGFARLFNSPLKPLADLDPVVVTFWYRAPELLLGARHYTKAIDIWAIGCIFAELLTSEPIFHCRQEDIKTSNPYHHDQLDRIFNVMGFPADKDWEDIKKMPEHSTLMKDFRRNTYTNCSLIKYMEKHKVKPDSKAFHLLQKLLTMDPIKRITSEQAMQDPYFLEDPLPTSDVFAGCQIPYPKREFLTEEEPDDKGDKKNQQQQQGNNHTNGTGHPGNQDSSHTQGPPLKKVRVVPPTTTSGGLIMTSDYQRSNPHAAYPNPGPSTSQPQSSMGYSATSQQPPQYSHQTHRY
CDK8, sequence (P24863 whole entry partner): as the sequence (P24863 whole entry partner) above
Procedure: as §4

PDGFR-α = PDGFR-α (Homo sapiens, UniProt P16234); assay: In vitro kinase assay ([γ-33P]-ATP); type: biochemical; conditions: ATP at apparent ATP-Km of the kinase
PDGFR-α, sequence (P16234 24-1089): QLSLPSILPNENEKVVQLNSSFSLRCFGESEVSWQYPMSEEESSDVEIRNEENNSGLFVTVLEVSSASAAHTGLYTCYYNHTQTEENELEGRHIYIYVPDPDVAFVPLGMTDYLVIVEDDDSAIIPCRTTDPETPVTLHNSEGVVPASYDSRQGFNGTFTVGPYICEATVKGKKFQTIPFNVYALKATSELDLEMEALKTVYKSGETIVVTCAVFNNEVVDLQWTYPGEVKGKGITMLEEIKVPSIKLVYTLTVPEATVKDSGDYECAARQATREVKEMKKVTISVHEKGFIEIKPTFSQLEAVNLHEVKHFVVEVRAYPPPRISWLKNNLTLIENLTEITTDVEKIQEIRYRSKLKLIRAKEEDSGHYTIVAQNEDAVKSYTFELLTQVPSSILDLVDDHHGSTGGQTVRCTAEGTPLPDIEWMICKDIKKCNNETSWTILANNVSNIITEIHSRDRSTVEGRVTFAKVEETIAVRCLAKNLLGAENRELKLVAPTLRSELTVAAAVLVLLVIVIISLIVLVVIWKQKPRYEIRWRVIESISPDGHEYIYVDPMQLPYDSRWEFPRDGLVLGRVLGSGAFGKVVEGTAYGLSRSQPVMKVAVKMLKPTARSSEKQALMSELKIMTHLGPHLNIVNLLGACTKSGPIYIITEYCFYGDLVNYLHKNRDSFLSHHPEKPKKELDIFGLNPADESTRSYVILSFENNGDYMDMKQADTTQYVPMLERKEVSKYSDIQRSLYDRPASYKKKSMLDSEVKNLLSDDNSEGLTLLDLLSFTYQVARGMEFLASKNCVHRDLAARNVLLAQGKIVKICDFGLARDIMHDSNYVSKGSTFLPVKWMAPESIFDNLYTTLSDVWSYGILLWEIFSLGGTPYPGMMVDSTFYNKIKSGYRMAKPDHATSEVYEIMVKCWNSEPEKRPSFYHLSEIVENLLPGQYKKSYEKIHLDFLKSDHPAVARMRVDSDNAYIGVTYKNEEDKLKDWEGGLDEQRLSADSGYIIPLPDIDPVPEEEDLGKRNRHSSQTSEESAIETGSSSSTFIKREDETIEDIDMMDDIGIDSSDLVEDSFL
Procedure: as §4

PDGFR-β = PDGFR-β (Homo sapiens, UniProt P09619); assay: In vitro kinase assay ([γ-33P]-ATP); type: biochemical; conditions: ATP at apparent ATP-Km of the kinase
PDGFR-β, sequence (P09619 33-1106): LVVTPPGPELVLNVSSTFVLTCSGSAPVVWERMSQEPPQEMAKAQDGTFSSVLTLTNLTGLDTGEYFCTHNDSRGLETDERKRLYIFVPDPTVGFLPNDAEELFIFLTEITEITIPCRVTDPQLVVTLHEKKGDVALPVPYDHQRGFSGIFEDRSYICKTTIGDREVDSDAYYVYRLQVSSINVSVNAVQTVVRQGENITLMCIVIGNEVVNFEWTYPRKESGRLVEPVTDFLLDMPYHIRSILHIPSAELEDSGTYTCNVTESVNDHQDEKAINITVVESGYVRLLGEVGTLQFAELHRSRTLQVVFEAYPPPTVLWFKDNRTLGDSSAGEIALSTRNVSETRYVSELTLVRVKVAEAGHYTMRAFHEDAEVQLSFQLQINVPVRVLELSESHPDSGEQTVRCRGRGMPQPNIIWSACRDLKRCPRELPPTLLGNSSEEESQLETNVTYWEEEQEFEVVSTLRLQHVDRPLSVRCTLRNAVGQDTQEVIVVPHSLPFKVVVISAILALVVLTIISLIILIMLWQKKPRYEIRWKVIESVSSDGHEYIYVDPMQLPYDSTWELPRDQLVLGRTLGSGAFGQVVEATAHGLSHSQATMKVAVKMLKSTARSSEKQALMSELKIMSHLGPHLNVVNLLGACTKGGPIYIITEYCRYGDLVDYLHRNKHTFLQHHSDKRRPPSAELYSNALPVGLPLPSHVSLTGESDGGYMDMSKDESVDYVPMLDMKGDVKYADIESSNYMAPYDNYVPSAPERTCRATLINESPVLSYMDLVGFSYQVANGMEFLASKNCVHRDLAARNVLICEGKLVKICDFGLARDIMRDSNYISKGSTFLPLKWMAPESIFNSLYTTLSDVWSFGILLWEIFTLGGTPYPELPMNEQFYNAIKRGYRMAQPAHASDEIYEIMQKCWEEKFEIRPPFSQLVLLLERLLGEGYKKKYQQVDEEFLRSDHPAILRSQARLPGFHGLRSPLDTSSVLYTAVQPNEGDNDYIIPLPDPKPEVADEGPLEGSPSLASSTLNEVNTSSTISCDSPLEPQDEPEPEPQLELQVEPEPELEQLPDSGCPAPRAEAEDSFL
Procedure: as §4

VEGFR-2 = VEGFR-2 (Homo sapiens, UniProt P35968); assay: In vitro kinase assay ([γ-33P]-ATP); type: biochemical; conditions: ATP at apparent ATP-Km of the kinase
VEGFR-2, sequence (P35968 20-1356): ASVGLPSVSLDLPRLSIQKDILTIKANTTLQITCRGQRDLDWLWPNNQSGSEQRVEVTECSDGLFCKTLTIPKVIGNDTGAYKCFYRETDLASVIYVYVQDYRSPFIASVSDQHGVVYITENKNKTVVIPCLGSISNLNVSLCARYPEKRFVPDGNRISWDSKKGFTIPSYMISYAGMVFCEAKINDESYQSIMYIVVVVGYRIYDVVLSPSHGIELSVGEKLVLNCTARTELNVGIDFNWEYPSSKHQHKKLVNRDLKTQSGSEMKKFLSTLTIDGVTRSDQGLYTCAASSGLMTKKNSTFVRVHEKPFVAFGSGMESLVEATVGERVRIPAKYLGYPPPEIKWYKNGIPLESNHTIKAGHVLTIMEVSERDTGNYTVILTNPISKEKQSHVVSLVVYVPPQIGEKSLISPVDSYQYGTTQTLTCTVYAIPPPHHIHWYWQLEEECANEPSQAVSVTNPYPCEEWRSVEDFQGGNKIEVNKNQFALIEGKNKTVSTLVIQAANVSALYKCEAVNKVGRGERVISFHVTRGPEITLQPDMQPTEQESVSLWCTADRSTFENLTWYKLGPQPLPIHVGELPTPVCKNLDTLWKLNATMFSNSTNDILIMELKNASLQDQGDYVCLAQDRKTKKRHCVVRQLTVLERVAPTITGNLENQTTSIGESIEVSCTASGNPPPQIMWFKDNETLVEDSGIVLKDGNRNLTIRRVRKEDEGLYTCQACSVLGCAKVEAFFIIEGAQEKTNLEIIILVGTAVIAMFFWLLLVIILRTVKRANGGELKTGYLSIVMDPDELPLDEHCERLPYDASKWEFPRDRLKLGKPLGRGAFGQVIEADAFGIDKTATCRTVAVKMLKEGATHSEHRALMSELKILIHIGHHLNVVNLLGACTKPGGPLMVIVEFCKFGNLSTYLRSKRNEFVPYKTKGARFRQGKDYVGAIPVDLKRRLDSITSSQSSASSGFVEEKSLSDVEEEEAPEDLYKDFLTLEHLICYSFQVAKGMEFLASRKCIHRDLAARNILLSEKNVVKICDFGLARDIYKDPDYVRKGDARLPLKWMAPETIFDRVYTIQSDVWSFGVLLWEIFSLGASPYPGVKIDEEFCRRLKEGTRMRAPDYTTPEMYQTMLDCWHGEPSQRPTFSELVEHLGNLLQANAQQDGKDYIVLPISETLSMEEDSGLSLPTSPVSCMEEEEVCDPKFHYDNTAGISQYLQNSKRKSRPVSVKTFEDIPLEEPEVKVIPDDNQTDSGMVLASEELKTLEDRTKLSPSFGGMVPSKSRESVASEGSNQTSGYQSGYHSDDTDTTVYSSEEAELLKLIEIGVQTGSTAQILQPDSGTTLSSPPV
Procedure: as §4

Row | IC50 (CDK19) [nM] | IC50 (CDK8) [nM] | IC50 (PDGFR-α) [nM] | IC50 (PDGFR-β) [nM] | IC50 (VEGFR-2) [nM] | SMILES | Inhibition of PDGFRβ signaling (PDGFRβ autophosphorylation and Shp2 phosphorylation, Western blot) [1] | IC50 [2] [nM] | IC50 (Flt3) [nM] | IC50 [3] [nM] | Activity compared to the imatinib and quizartinib controls (cell viability) [2]
1 | – | – | – | – | – | Cc1ccc(NC(=O)COc2ccc(-c3cnc4ccccn34)cn2)cc1C(F)(F)F [Example 2] | able to inhibit PDGFRβ signaling | < 500 | < 500 | – | –
2 | – | – | – | – | – | Cc1ccc(NC(=O)COc2ccc(-c3cnc4cnccn34)c(F)n2)cc1C(F)(F)F [Example 7] | – | – | – | < 500 | –
3 | < 500 | < 500 | > 5000 | > 5000 | > 5000 | Cn1nc(NC(=O)C2(C(=O)Nc3ccc(-c4cnc5cnccn45)cc3)CC2)cc1C(F)(F)F [Example 21] | – | – | > 5000 | – | –
4 | – | – | – | – | – | Cn1nc(NC(=O)COc2ccc(-c3cnc4cnccn34)cn2)cc1C(F)(F)F [Example 9] | – | < 500 | – | – | –
5 | – | – | – | – | – | Cn1nc(NC(=O)COc2ccc(-c3cnc4ccccn34)cn2)cc1C(F)(F)F [Example 1] | able to inhibit PDGFRβ signaling | – | – | < 500 | improved activity
6 | < 500 | < 500 | > 5000 | > 5000 | > 5000 | O=C(Nc1ccc(-c2cnc3cnccn23)cc1)C1(C(=O)Nc2cc(C(F)(F)F)c(Cl)cn2)CC1 [Example 20] | – | – | > 5000 | – | –
7 | < 500 | < 500 | > 5000 | > 5000 | 500 to 5000 | Cn1nc(NC(=O)C2(C(=O)Nc3ccc(-c4cnc5cnccn45)c(F)c3)CC2)cc1C(F)(F)F [Example 22] | – | – | > 5000 | – | –
8 | – | – | – | – | – | Cc1ccc(NC(=O)CNc2ccc(-c3cnc4cnccn34)cc2)cc1C(F)(F)F [Example 15] | – | – | – | < 500 | –

Row | SMILES | IC50 (CDK19) [nM] | IC50 (CDK8) [nM] | IC50 (PDGFR-α) [nM] | IC50 (PDGFR-β) [nM] | IC50 (VEGFR-2) [nM] | Inhibition of PDGFRβ signaling (PDGFRβ autophosphorylation and Shp2 phosphorylation, Western blot) [1] | IC50 [2] [nM] | IC50 (Flt3) [nM] | IC50 [3] [nM] | Activity compared to the imatinib and quizartinib controls (cell viability) [2]
9 | Cc1cnc(NC(=O)COc2ccc(-c3cnc4cnccn34)cn2)cc1C(F)(F)F [Example 3] | < 500 | < 500 | < 500 | < 500 | < 500 | – | < 500 | < 500 | – | improved activity
10 | Cc1cnc(NC(=O)COc2ccc(-c3cnc4ccccn34)cn2)cc1C(F)(F)F [Example 8] | < 500 | < 500 | < 500 | < 500 | < 500 | – | < 500 | < 500 | – | –
